Assay [1] concerns GABAergic mIPSCS in the amygdala neurons. Description: GABAergic mIPSCs in amygdala neurons (preliminary data). In kind it is cell-based. The conditions noted are these: 100 μM.
Assay [2] has as its system depression-like behavior of mice. The experiment in a line: social defeat stress test. The format is in vivo. The conditions noted are these: C57BL/6J mice after 9 days of defeat, p = 0.440, n = 14. The text has this:
Male ICR mice (n = 317 in total) aged 5 weeks and weighing 32 ± 2 g were purchased from Shimizu Laboratory Supplies (Kyoto, Japan). For the social defeat stress test, we used 28 C57BL/6J mice (5 weeks old, Shimizu Laboratory Supplies) and 30 ICR mice (7–8 weeks old, Charles River Labs Japan, Yokohama, Kanagawa, Japan). Mice were maintained for at least 1 week prior to experiments. Animals were kept in groups in plastic cages. They had free access to food and water, and were kept in a 12-h light/dark cycle (08:00–20:00). Experiments were carried out between 10:00 and 18:00 in a quiet and air-conditioned experimental room, in which mice were habituated for at least 30 min before each experiment. Animal experiments were performed in accordance with the guidelines of the Physiological Society of Japan and were approved by the Committees on Animal Experiments at Kansai Medical University and the Kurashiki University of Science and the Arts. Ostruthin was initially dissolved in DMSO at higher concentration (100 mM) and then diluted in phosphate-buffered saline (PBS). The diluted solution was mixed vigorously for more than 10 min before the experiments, and an equal volume of DMSO was added to PBS as a control. […] Time spent in the target zone was measured firstly with the empty mesh enclosure for 150 sec. […]

SMILES strings stand for the structures.

Consider `CC(C)=CCC/C(C)=C/Cc1cc2ccc(=O)oc2cc1O` [ostruthin], for which the “amplitude or frequency of GABAergic mIPSCS in the amygdala neurons” value in assay [1] is listed as “no effect”. For the same compound, in assay [2], the “time difference in the interaction area (target zone)” value is recorded as “increased the time difference in the interaction area non-significantly”.

(Values after paper PMC6093650, “Antidepressive and anxiolytic effects of ostruthin, a TREK-1 channel activator” (PLoS ONE, 2018).)
